Results reported in patent US20250339399A1, “SUPRAMOLECULAR SELF-ASSEMBLY SYSTEM” (Beijing Creatron Institute of Pharmaceutical Research Co., …, priority 2022, published 2025).
Where a name gives a salt, the structure may show the parent alone. Read-outs that look alike come from different tables or passages of the source. Values belong to the molecule of their own block, whether it stands above or below them.

Key:
[1] = cited from earlier work
[2] = Binary supramolecular self-assembly systems of polymer and target: guest concentration over incubation time (Comparative Example 2); type: physicochemical; settings: for Concentration of guest molecule in solution / Times that of the initial medium: 6 h
Procedure: Experiments were conducted according to the steps in Comparative Example 1, and quantitative analysis was carried out using the analytical method for each target to investigate the regulation ability […] stacking.

[3] = Guest molecule concentration after incubation in initial medium without polymer (Comparative Example 1); type: physicochemical; settings: for Concentration of guest molecule measured after different incubated time: 37° C.; for Concentration of guest molecule in solution: initial medium
Procedure: (§1) pH 2.0 hydrochloric acid, pH 4.5 acetate, and pH 6.5, pH 6.8, or pH 7.4 phosphate buffer solutions were prepared. The selection of each initial medium followed the principle that the solubility in the initial medium of the selected targets (or active ingredients) should low enough, but should meet the detection sensitivity and accuracy requirements of the corresponding analytical methods. Each buffer as initial media was placed in a 50 ml test tube with a stopper, shaken in a constant temperature air shaker at 37° C.±0.5° C., with an amplitude of 200 rpm, and incubated for 1 hour. […] Samples were taken at 0.5 h, 3 h and 6 h after incubation, centrifuged at 37° C., 13000 rpm for 5 minutes, and the supernatant was diluted at least 10 times with the mobile phase under the target analyte analytical method, filtered, the initial filtrate was discarded, and the continued filtrate was used as the test solution for injection analysis. The corresponding HPLC method under each target object item in Table 8 was used to determine the content of each target substance. When the solubility of the target in the initial medium is below the quantitative limit of the analytical method, a small amount of surfactant, such as sodium dodecyl sulfate (SDS), Tween20, or Tween80, can be added appropriately.
The above targets were incubated at 37° C.±0.5° C. for different time in an initial medium without any polymer. Each solid target formed by molecular stacking was removed by centrifugation, and the supernatant was analyzed using the HPLC method under each target item (see Table 8). The theoretical addition concentration of each target when its supramolecular self-assembly system was built was determined by its maximum dose in clinical use.

[4] = Binary (carrier), ternary and quaternary supramolecular self-assembly systems of polymer, carrier building block and target: guest concentration over incubation time (Examples 1-56); type: physicochemical; settings: for Times that of the initial medium / Concentration of guest molecule in solution: 6 h
Procedure: as §1
Experiments were conducted according to the steps in Comparative Example 1, and quantitative analysis was carried out using the analytical method for each target to investigate the regulation ability of each binary supramolecular self-assembly system built from 0.5% polymer and target on guest molecules stacking.
Ternary supramolecular self-assembly systems based on different polymers, carrier building blocks, and targets were built according to the experimental scheme in Table 12, to investigate the influence of synergistic regulation of the carrier building blocks and the polymers on the stacking of target molecules, as well as the stability of the supramolecular self-assembly systems jointly built by them over incubation time. The initial medium, quantitative analysis method, pre-treatment method, and initial theoretical concentration of the target, corresponding to each target molecule in the experiment, were consistent with those in Comparative Examples 1 and 2. After a target was added to the system, the target was uniformly dispersed by ultrasonication at 37° C. for half an hour and then shaken in a 37° C. constant temperature air shaker, and samples were collected after different incubation time, i.e. 0.5 h, 1 h, 2 h, 3 h, 4 h, and 6 h.

[5] = prost derivatives, Table 31 (relevant information)
[6] = binary system with 0.5% polymer 102, incubation 0.5 h
[7] = binary system with 0.5% polymer 102, incubation 3 h
[8] = binary system with 0.5% polymer 102, incubation 6 h
[9] = ternary: 0.25% 102M + 0.25% 301
[10] = ternary: 0.25% 102M + 0.25% 302
[11] = Cannabidiol derivatives, Table 30 (chemical structures)

Structure (SMILES): CCCCC(C)(O)C/C=C/[C@H]1[C@H](O)CC(=O)[C@@H]1CCCCCCC(=O)OC (mixture of isomers) [Misoprostol, misoprostol]
Log P [1, 5]: Log P:3.86 D-H: 2 R-H:4

Structure (SMILES): CCCCC[C@H](O)/C=C/[C@H]1[C@H](O)CC(=O)[C@@H]1CCCCCCC(=O)O [Alprostadil, alprostadil]
Log P [1, 5]: Log P 3.58 H,3 R-H 5

Structure (SMILES): CCCCC[C@](C)(O)/C=C/[C@@H]1[C@@H](C/C=C\CCCC(=O)O)[C@@H](O)C[C@H]1O [Carboprost, carboprost]
Log P [1, 5]: Log P:2.89 D-H: 4 R-H: 5

Concentration of guest molecule in solution ([2]; binary: 0.5% 103E3): 64370 ng/mL
Concentration of guest molecule measured after different incubated time ([3]; 0.5 h, pH 4.5 acetate buffer): 48900 ng/mL
Concentration of guest molecule measured after different incubated time ([3]; 3 h, pH 4.5 acetate buffer): 39600 ng/mL
Concentration of guest molecule measured after different incubated time ([3]; 6 h, pH 4.5 acetate buffer): 52000 ng/mL
Concentration of guest molecule in solution ([3]; 6 h): 51970 ng/mL
Times that of the initial medium ([4]; quaternary: 0.25% 204 (102M+103E3) + 0.25% 302, 310, 314 or 318, range over the systems): 13-17 times
Structure (SMILES): COC(=O)[C@H](c1ccccc1Cl)N1CCc2sccc2C1 [Clopidogrel bisulfate]

Structure (SMILES): CCCCC(C)(C)[C@H](O)/C=C/[C@H]1[C@H](O)CC(=O)[C@@H]1CCCC/C=C/C(=O)OC [Gemeprost, gemeprost]
Log P [1, 5]: Log P:4.71 D-H: 2 R-H:4

Structure (SMILES): O=C1C[C@@H]2[C@@H](CC[C@@H](O)CCc3ccccc3)[C@H](O)C[C@@H]2O1 [Latanoprost lactone diol, latanoprost lactone diol]
Log P [1, 5]: Log P: 1.87 D-H: 2 R-H: 3

Concentration of guest molecule in solution ([2]; binary: 0.25% 101): 32400 ng/mL
Concentration of guest molecule in solution ([2]; binary: 0.25% 102H): 84400 ng/mL
Concentration of guest molecule measured after different incubated time ([3]; 0.5 h, pH 6.8 phosphate buffer): 7300 ng/mL
Concentration of guest molecule measured after different incubated time ([3]; 3 h, pH 6.8 phosphate buffer): 10700 ng/mL
Concentration of guest molecule measured after different incubated time ([3]; 6 h, pH 6.8 phosphate buffer): 3200 ng/mL
Concentration of guest molecule in solution ([4]; binary: 0.25% 312): 71500 ng/mL
Concentration of guest molecule in solution ([4]; binary: 0.25% 314): 56600 ng/mL
Times that of the initial medium ([4]; binary: 0.25% 314): 81 times
Concentration of guest molecule in solution ([4]; binary: 0.5% 314): 198800 ng/mL
Times that of the initial medium ([4]; binary: 0.5% 314): 284 times
Concentration of guest molecule in solution ([4]; binary: 0.5% 319): 2300 ng/mL
Concentration of guest molecule in solution ([4]; ternary: 0.25% 102H + 312, carrier % not stated): 122100 ng/mL
Concentration of guest molecule in solution ([4]; ternary: 0.25% 319 + 0.25% 101): 11200 ng/mL
Concentration of guest molecule in solution ([4]; ternary: 102H + 310, carrier % not stated): 204900 ng/mL
Concentration of guest molecule in solution ([4]; ternary: 102H + 313, carrier % not given): 135700 ng/mL
Concentration of guest molecule in solution ([4]; ternary: 102H + 318, carrier % not stated): 141800 ng/mL
Structure (SMILES): O=C1[C@@H]2[C@H]3CC[C@H](C3)[C@@H]2C(=O)N1C[C@@H]1CCCC[C@H]1CN1CCN(c2nsc3ccccc23)CC1 [Lurasidone hydrochloride]

Structure (SMILES): CC1=C[C@H](O)CC(C)(C)[C@H]1/C=C/C(C)=C/C=C/C(C)=C/C=C/C=C(C)/C=C/C=C(C)/C=C/C1=C(C)C[C@@H](O)CC1(C)C [Lutein, lutein]
Concentration of the target in the solution measured after different incubation time [2, 6]: 16300 ng/mL
Concentration of the target in the solution measured after different incubation time [2, 7]: 16900 ng/mL
Concentration of the target in the solution measured after different incubation time [2, 8]: 16000 ng/mL
Concentration of guest molecule measured after different incubated time ([3]; 0.5 h, pH 6.8 phosphate buffer): 0 ng/mL
Concentration of guest molecule measured after different incubated time ([3]; 3 h, pH 6.8 phosphate buffer): 0 ng/mL
Concentration of guest molecule measured after different incubated time ([3]; 6 h, pH 6.8 phosphate buffer): 0 ng/mL

Concentration of the target in the solution measured after different incubation time ([2]; binary system with 0.5% polymer 101, incubation 0.5 h): 132500 ng/mL
Concentration of the target in the solution measured after different incubation time ([2]; binary system with 0.5% polymer 101, incubation 3 h): 47200 ng/mL
Concentration of the target in the solution measured after different incubation time ([2]; binary system with 0.5% polymer 101, incubation 6 h): 46600 ng/mL
Concentration of the target in the solution measured after different incubation time [2, 6]: 169800 ng/mL
Concentration of the target in the solution measured after different incubation time [2, 7]: 166000 ng/mL
Concentration of the target in the solution measured after different incubation time [2, 8]: 161400 ng/mL
Concentration of the target in the solution measured after different incubation time ([2]; binary system with 0.5% polymer 103, incubation 0.5 h): 19200 ng/mL
Concentration of the target in the solution measured after different incubation time ([2]; binary system with 0.5% polymer 103, incubation 3 h): 20400 ng/mL
Concentration of the target in the solution measured after different incubation time ([2]; binary system with 0.5% polymer 103, incubation 6 h): 17500 ng/mL
Concentration of the target in the solution measured after different incubation time ([2]; binary system with 0.5% polymer 104, incubation 0.5 h): 11900 ng/mL
Concentration of the target in the solution measured after different incubation time ([2]; binary system with 0.5% polymer 104, incubation 3 h): 9400 ng/mL
Concentration of the target in the solution measured after different incubation time ([2]; binary system with 0.5% polymer 104, incubation 6 h): 9100 ng/mL
Concentration of the target in the solution measured after different incubation time ([2]; binary system with 0.5% polymer 106, incubation 0.5 h): 16800 ng/mL
Concentration of the target in the solution measured after different incubation time ([2]; binary system with 0.5% polymer 106, incubation 3 h): 17400 ng/mL
Concentration of the target in the solution measured after different incubation time ([2]; binary system with 0.5% polymer 106, incubation 6 h): 17300 ng/mL
Concentration of the target in the solution measured after different incubation time ([2]; binary system with 0.5% polymer 107, incubation 0.5 h): 48300 ng/mL
Concentration of the target in the solution measured after different incubation time ([2]; binary system with 0.5% polymer 107, incubation 3 h): 52100 ng/mL
Concentration of the target in the solution measured after different incubation time ([2]; binary system with 0.5% polymer 107, incubation 6 h): 45500 ng/mL
Concentration of the target in the solution measured after different incubation time ([2]; binary system with 0.5% polymer 110, incubation 0.5 h): 17000 ng/mL
Concentration of the target in the solution measured after different incubation time ([2]; binary system with 0.5% polymer 110, incubation 3 h): 19200 ng/mL
Concentration of the target in the solution measured after different incubation time ([2]; binary system with 0.5% polymer 110, incubation 6 h): 19100 ng/mL
Concentration of guest molecule in solution ([2]; binary: 0.25% 102H): 260200 ng/mL
Times that of the initial medium ([2]; binary: 0.25% 102H): approximately 14 times
Times that of the initial medium ([2]; binary: 0.25% 102M): about 6 times
Concentration of guest molecule measured after different incubated time ([3]; 0.5 h, 0.05% SDS in pH 6.8 phosphate buffer): 11700 ng/mL
Concentration of guest molecule measured after different incubated time ([3]; 3 h, 0.05% SDS in pH 6.8 phosphate buffer): 11900 ng/mL
Concentration of guest molecule measured after different incubated time ([3]; 6 h, 0.05% SDS in pH 6.8 phosphate buffer): 7800 ng/mL
Concentration of guest molecule in solution ([3]; 6 h): 18400 ng/mL
Concentration of guest molecule in solution [4, 9]: 290800 ng/mL
Times that of the initial medium [4, 9]: 26 times
Concentration of guest molecule in solution [4, 10]: 107200 ng/mL
Times that of the initial medium [4, 10]: 9.7 times
Concentration of guest molecule in solution ([4]; ternary: 0.25% 102M + 0.5% 301): 394000 ng/mL
Times that of the initial medium ([4]; ternary: 0.25% 102M + 0.5% 301): 35 times
Times that of the initial medium ([4]; ternary: 102M + 310, 312 or 313): 29 times
Concentration of guest molecule in solution ([4]; ternary: 102M + 318): 253700 ng/mL
Structure (SMILES): CCCSc1nc(N[C@@H]2C[C@H]2c2ccc(F)c(F)c2)c2nnn([C@@H]3C[C@H](OCCO)[C@@H](O)[C@H]3O)c2n1 [Ticagrelor]

Structure (SMILES): O=C(O)CCC/C=C\C[C@@H]1[C@@H](/C=C/[C@@H](O)COc2cccc(C(F)(F)F)c2)[C@H](O)C[C@@H]1O [Travoprost acid, travoprost acid]
Log P [1, 5]: Log P:2.92 D-H: 4 R-H: 6

Structure (SMILES): CC(C)OC(=O)CCC/C=C\C[C@@H]1[C@@H](/C=C/[C@@H](O)COc2cccc(C(F)(F)F)c2)[C@H](O)C[C@@H]1O [Travoprost, travoprost]
Log P [1, 5]: Log P:3.84 D-H: 3 R-H: 5

Encapsulation rate for the guest molecule ([4]; quaternary: 0.25% 207 (101+103E5) + 0.1% 320): ~100%
Structure (SMILES): CC(=O)CC(c1ccccc1)c1c(O)c2ccccc2oc1=O (centres unmarked) [Warfarin]

Structure (SMILES): C=C(C)[C@@H]1CCC(C)=C[C@H]1c1c(O)cc(CCCCC)cc1O [compound 1, ((1′R,2′R)-5′-methyl-4-pentyl-2′-(prop-1-en-2-yl)-1′,2′,3′,4′-tetrahydro-[1,1′-biphenyl]-2,6-diol)]
Log P [1, 11]: Log P = 6.32, H-D:2,H-R = 2

Structure (SMILES): C=C(C)[C@@H]1CCC(C)=C[C@H]1c1c(O)cc(C)cc1O [compound 2, ((1′R,2′R)-4,5′-dimethyl-2′-(prop-1-en-2-yl)-1′,2′,3′,4′-tetrahydro-[1,1′-biphenyl]-2,6-diol)]
Log P [1, 11]: Log P = 4.55, H-D:2,H-R = 2
